Data on eleven molecules can be found in patent publication US7550459B2, “Tetrahydroquinoline analogues as muscarinic agonists” (Acadia Pharmaceuticals, Inc., priority 2001, dated 2009).

Common to all, as to assay type: cell-based
The target in one assay is T1, M4 muscarinic receptor (Homo sapiens, UniProt P08173).
T1 construct: expressed in transfected cells
T1 sequence (P08173 1-479): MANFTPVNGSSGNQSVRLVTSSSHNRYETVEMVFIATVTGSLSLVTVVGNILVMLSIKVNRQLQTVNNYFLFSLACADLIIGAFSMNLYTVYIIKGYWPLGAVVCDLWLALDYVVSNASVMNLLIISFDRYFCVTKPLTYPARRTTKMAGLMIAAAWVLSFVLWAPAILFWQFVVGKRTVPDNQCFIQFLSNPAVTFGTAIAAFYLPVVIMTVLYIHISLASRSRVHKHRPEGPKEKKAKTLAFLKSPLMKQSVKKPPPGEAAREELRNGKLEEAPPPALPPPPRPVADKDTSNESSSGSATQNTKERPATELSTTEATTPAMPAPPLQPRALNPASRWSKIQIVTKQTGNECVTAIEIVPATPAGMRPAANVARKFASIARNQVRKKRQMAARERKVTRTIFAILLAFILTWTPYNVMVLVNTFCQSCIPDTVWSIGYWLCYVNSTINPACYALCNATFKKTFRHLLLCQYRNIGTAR
Briefly: Receptor Selection and Amplification (R-SAT) assay, cloned M4 receptor. The following applies: for Emax: read-out: m4 % Efficacy. The text has this:
(§1) The EC50 for an agonist is intended to denote the concentration of a compound needed to achieve 50% of a maximal response seen in an in vitro assay such as R-SAT. For inverse agonists, EC50 is intended to denote the concentration of a compound needed to achieve 50% inhibition of an R-SAT response from basal, no compound, levels.
(§2) A particularly convenient functional assay system is the receptor selection and amplification assay (R-SAT assay) in U.S. Pat. No. 5,707,798, which describes a method of screening for bioactive compounds by utilizing the ability of cells transfected with receptor DNA, e.g., coding for the different muscarinic subtypes, to amplify in the presence of a ligand of the receptor. Cell amplification is detected as increased levels of a marker also expressed by the cells.
(§3) Receptor Selection and Amplification (R-SAT) assays were carried out using the cloned M1-M5 receptors essentially as described in: Brauner-Osborne H, Brann M R. Pharmacology of muscarinic acetylcholine receptor subtypes (m1-m5): high throughput assays in mammalian cells. Eur J Pharmacol Jan. 4, 1996;295(1):93-102, and Spalding T A, Trotter C, Skjaerbaek N, Messier T L, Currier E A, Burstein E S, Li D, Hacksell U, Brann M R. Discovery of an ectopic activation site on the M(1) muscarinic receptor. Mol Pharmacol. 2002 June;61(6):1297-302.

The target of a further assay is T2, M1 muscarinic receptor (Homo sapiens, UniProt P11229).
T2 construct: expressed in transfected cells
T2 sequence (P11229 1-460): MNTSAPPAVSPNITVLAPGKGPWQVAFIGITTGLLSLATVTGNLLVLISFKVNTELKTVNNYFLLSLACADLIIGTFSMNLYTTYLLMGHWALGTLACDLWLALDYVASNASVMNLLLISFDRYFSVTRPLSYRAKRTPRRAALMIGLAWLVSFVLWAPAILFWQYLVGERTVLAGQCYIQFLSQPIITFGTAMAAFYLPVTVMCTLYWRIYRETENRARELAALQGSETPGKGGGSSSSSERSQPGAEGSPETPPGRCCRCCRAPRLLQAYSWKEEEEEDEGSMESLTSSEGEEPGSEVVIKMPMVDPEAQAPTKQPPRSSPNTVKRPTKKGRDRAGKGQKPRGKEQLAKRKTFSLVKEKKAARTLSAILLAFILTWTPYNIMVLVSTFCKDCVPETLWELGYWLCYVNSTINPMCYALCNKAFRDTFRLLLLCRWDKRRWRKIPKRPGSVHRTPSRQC
In words: Receptor Selection and Amplification (R-SAT) assay, cloned M1 receptor. To be noted: for Emax: read-out: m1 % Efficacy. Further details: M1 Eff: scale not given here.
Excerpt: as §1, §2, §3

A further assay concerns the target T3, M2 muscarinic receptor (Homo sapiens, UniProt P08172).
T3 construct: expressed in transfected cells
T3 sequence (P08172 1-466): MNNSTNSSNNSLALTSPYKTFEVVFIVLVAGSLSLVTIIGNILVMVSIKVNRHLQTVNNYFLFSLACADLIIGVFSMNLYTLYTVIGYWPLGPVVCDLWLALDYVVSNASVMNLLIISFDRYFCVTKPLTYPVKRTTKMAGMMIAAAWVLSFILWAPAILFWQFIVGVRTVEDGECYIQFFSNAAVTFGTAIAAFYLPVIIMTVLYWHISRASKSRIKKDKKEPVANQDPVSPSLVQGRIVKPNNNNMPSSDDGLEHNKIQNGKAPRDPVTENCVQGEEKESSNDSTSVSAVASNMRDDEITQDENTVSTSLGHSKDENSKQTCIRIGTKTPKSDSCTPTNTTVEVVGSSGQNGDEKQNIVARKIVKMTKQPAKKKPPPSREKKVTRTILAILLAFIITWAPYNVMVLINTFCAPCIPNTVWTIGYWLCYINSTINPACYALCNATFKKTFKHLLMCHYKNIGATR
In words: Receptor Selection and Amplification (R-SAT) assay, cloned M2 receptor. Details: M2 Eff: scale not given here. The following applies: for Emax: read-out: m2 % Efficacy.
Excerpt: as §1, §2, §3

The next assay addresses T4, M5 muscarinic receptor (Homo sapiens, UniProt P08912).
T4 construct: expressed in transfected cells
T4 sequence (P08912 1-532): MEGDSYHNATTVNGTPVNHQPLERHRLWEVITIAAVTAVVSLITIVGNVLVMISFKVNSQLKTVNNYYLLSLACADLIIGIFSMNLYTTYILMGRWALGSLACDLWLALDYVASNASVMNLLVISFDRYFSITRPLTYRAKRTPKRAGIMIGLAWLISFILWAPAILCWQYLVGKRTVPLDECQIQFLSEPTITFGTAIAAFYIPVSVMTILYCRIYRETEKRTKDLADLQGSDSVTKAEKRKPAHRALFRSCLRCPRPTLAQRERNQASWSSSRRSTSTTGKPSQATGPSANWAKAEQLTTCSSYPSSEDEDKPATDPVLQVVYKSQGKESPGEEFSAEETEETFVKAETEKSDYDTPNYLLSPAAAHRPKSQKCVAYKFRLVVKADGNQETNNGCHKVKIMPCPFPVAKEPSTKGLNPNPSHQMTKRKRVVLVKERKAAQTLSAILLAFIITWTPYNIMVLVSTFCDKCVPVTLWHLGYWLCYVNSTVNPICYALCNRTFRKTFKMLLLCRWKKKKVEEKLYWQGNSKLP
Briefly: Receptor Selection and Amplification (R-SAT) assay, cloned M5 receptor. The following applies: for Emax: read-out: m5 % Efficacy; for EC50: read-out: m5 pEC50 (converted).
Excerpt: as §1, §2, §3

A further assay addresses T5, M3 muscarinic receptor (Homo sapiens, UniProt P20309).
T5 construct: expressed in transfected cells
In words: Receptor Selection and Amplification (R-SAT) assay, cloned M3 receptor.
Excerpt: as §1, §2, §3

Setting [1] is: R-SAT, cloned m4 receptor, read-out: m4 pEC50 (converted).
[2] abbreviates: R-SAT, cloned m2 receptor, read-out: m2 pEC50 (converted).
[3] abbreviates: m1 pEC50, R-SAT, cloned m1 receptor.
Setting [4] is: m2 pEC50, R-SAT, cloned m2 receptor.
[5] abbreviates: R-SAT, cloned m1 receptor, read-out: m1 pEC50 (converted).
The mark [6] stands for this setting: R-SAT, second table (COMPOUND ID series).
Where [7] appears, read: R-SAT, second table (COMPOUND ID series), read-out: M1 pEC50 (converted).
Where [8] appears, read: R-SAT, second table (COMPOUND ID series), read-out: M2 pEC50 (converted).
The mark [9] stands for this setting: R-SAT, second table (COMPOUND ID series), read-out: M3 pEC50 (converted).
The mark [10] stands for this setting: M1 pEC50, R-SAT, second table (COMPOUND ID series).
The mark [11] stands for this setting: M2 pEC50, R-SAT, second table (COMPOUND ID series).

Where two headings read alike, the source gives them in different places. Bounds are passed on as bounds.

T5 sequence (P20309 whole entry): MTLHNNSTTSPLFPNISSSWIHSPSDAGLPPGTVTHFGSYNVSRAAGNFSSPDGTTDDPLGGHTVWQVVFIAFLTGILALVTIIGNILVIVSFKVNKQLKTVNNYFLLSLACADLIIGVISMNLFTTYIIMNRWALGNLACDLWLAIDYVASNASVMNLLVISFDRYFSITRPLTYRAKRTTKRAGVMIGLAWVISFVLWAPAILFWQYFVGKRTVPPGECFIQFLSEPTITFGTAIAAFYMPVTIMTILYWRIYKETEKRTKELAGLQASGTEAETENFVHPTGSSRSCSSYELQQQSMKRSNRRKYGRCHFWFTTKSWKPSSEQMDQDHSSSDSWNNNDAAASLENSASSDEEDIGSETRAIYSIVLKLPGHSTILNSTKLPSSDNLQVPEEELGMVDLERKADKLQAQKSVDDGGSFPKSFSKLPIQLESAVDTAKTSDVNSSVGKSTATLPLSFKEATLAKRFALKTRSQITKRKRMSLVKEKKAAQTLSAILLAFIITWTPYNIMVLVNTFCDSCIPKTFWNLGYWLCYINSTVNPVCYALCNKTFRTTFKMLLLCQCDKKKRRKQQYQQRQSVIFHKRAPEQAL

For `CCCCC1CCN(CCCN2C(=O)COc3cc(F)ccc32)CC1` [Compound 81MF763, 4-[3-(4-Butylpiperidin-1-yl)propyl]-7-fluoro-4H-benzo[1,4]oxazin-3-one], the Emax amounted to 57% at M4 muscarinic receptor (R-SAT, cloned m4 receptor); 92% on M1 muscarinic receptor (R-SAT, cloned m1 receptor); 47% on M2 muscarinic receptor (R-SAT, cloned m2 receptor); 50% at M5 muscarinic receptor. Also, the EC50 was 0.398 µM on M4 muscarinic receptor (setting [1]), 0.251 µM on M2 muscarinic receptor (setting [2]) and 1.26 µM at M5 muscarinic receptor.
Turning to `CCCCCC1CC2CCC(C1)N2C[C@@H](C)CN1C(=O)COc2ccccc21` (stereo partly drawn) [Compound 108LM39-36, (R)-4-[2-Methyl-3-(3-pentyl-8-azabicyclo[3.2.1]oct-8-yl)propyl]-4H-benzo[1,4]oxazin-3-one], the EC50 at M4 muscarinic receptor is 0.02 µM; on M1 muscarinic receptor (setting [3]), 0.00158 µM; at M2 muscarinic receptor (setting [4]), 0.00794 µM. In addition, the Emax is 71% on M4 muscarinic receptor, 106% at M1 muscarinic receptor and 37% on M2 muscarinic receptor.
As for `CCCCC1CCN(CCCN2CCOc3ccc(C)cc32)CC1` [Compound 64LHY91-6, 4-[3-(4-Butyl-piperidin-1-yl)-propyl]-6-methyl-3,4-dihydro-2H-benzo[1,4]oxazine], the Emax on M4 muscarinic receptor (R-SAT, cloned m4 receptor) was found to be 52%; on M1 muscarinic receptor (R-SAT, cloned m1 receptor), 86%; at M2 muscarinic receptor (R-SAT, cloned m2 receptor), 31%. In addition, the EC50 on M4 muscarinic receptor (setting [1]) is 0.251 µM; at M1 muscarinic receptor (setting [5]) it was 0.0631 µM; on M2 muscarinic receptor (setting [2]), 0.126 µM.
Regarding `C[C@H](CN1CCC(OCC2CC2)CC1)CN1C(=O)COc2ccccc21` [Compound 00262908, 4-[(R)-3-(4-Cyclopropylmethoxypiperidin-1-yl)-2-methylpropyl]-4H-benzo[1,4]oxazin-3-one], on M1 muscarinic receptor (setting [6]), the “M1 Eff” value came out at 126. Further, the figures for the EC50 at M1 muscarinic receptor (setting [7]), on M2 muscarinic receptor (setting [8]) and at M3 muscarinic receptor (setting [9]) were 0.0126 µM, 0.631 µM and 2.51 µM, respectively. Further, the “M2 Eff” value at M2 muscarinic receptor (setting [6]) was 103. Further, the “M3 Eff” value on M3 muscarinic receptor (setting [6]) was determined as 74.
Take `CCCCC1CCN(CCCN2C(=O)CCc3cc(OC)ccc32)CC1` [Compound 77LH22-A, 1-[3-(4-Butyl-piperidin-1-yl)-propyl]-6-methoxy-3,4-dihydro-1H-quinolin-2-one]: the Emax came out at 76% at M1 muscarinic receptor (R-SAT, cloned m1 receptor) and 37% on M5 muscarinic receptor. Also, the EC50 on M1 muscarinic receptor (setting [5]) is 0.0794 µM; at M5 muscarinic receptor, over 3.16 µM.
Turning to `CCON=C1CC2CCC(C1)N2C[C@@H](C)CN1C(=O)COc2ccccc21` (single isomer, unassigned) [Compound 00261435], the EC50 on M1 muscarinic receptor (setting [10]) was 0.00398 µM; on M2 muscarinic receptor (setting [11]) it was 0.0794 µM; at M3 muscarinic receptor, 0.631 µM. Also, at M1 muscarinic receptor (setting [6]), the “M1 Eff” value was 121. At M2 muscarinic receptor (setting [6]), the “M2 Eff” value stood at 128. Besides, the “M3 Eff” value at M3 muscarinic receptor (setting [6]) was found to be 82.8.
As to `CCCCCC1CC2CCC(C1)N2C[C@@H](C)CN1C(=O)CCc2ccccc21` (stereo partly drawn) [Compound 107LH55, (R)-1-[2-Methyl-3-(3-pentyl-8-azabicyclo[3.2.1]oct-8-yl)propyl]-3,4-dihydro-1H-quinolin-2-one], the EC50 on M4 muscarinic receptor was 0.0501 µM; on M1 muscarinic receptor (setting [3]) it was 0.00126 µM; on M2 muscarinic receptor (setting [4]), 0.0316 µM. The Emax came out at 54% on M4 muscarinic receptor, 103% at M1 muscarinic receptor and 28% on M2 muscarinic receptor.
For `CCOCCC1CC2CCC(C1)N2CC(C)CN1C(=O)COc2ccccc21` (single isomer, unassigned) [Compound 00263201], the figures for the EC50 on M1 muscarinic receptor (setting [10]), on M2 muscarinic receptor (setting [11]) and on M3 muscarinic receptor were 0.001 µM, 0.0794 µM and 0.158 µM, respectively. Besides, the “M1 Eff” value on M1 muscarinic receptor (setting [6]) stood at 126. The “M2 Eff” value on M2 muscarinic receptor (setting [6]) is on record as 52. In addition, the “M3 Eff” value at M3 muscarinic receptor (setting [6]) came to 30.
`CCCCC1CCN(CCCN2CCOc3ccc(CC)cc32)CC1` [Compound 64LHY91-5, 4-[3-(4-Butyl-piperidin-1-yl)-propyl]-6-ethyl-3,4-dihydro-2H-benzo[1,4]oxazine]: the Emax at M4 muscarinic receptor (R-SAT, cloned m4 receptor) worked out at 51%; on M1 muscarinic receptor (R-SAT, cloned m1 receptor) it was 69%; at M5 muscarinic receptor, 38%. Also, the EC50 at M4 muscarinic receptor (setting [1]) was 2 µM; at M1 muscarinic receptor (setting [5]), 0.158 µM; at M5 muscarinic receptor, 0.631 µM.
For `CC(CN1CCC(OCC2CC2)CC1)CN1C(=O)COc2ccccc21` (racemic) [Compound 00262273, (R,S)-4-[3-(4-Cyclopropylmethoxypiperidin-1-yl)-2-methylpropyl]-4H-benzo[1,4]oxazin-3-one], at M1 muscarinic receptor (setting [6]), the “M1 Eff” value was 155. In addition, the EC50 on M1 muscarinic receptor (setting [7]) was 0.0251 µM; at M2 muscarinic receptor (setting [8]), 0.794 µM; at M3 muscarinic receptor (setting [9]), 1.58 µM. Also, the “M2 Eff” value on M2 muscarinic receptor (setting [6]) is reported as 98. The “M3 Eff” value at M3 muscarinic receptor (setting [6]) came to 35.
As for `C[C@@H](CN1C(=O)COc2ccccc21)CN1[C@@H]2CC[C@H]1C[C@@H](OCC1CC1)C2` [Compound 00262909, (R)-4-[3-(3a -Cyclopropylmethoxy-8-azabicyclo[3.2.1]oct-8-yl)-2-methylpropyl]-4H-benzo[1.4]oxazin-3-one], the EC50 at M1 muscarinic receptor (setting [10]) was 0.00251 µM; on M2 muscarinic receptor (setting [11]) it was 0.0398 µM; at M3 muscarinic receptor, 0.398 µM. The “M1 Eff” value on M1 muscarinic receptor (setting [6]) turned out to be 137. Further, the “M2 Eff” value at M2 muscarinic receptor (setting [6]) is 124. Also, the “M3 Eff” value on M3 muscarinic receptor (setting [6]) stood at 52.
